Data as given in patent publication US11976091B2, “Terpene glycoside derivatives and uses thereof” (Firmenich SA, priority 2018, dated 2024).

What was measured:
[1] = system: panel of 8 trained people; experiment: Sensory evaluation of taste properties on a scale of −5 to 5 versus 4% w/w sucrose reference solution; format: in vivo; settings: for Licorice / Sweet / Sweet Lingering: 30 ppm in 4% w/w sucrose solution, scale −5 to 5 (−5 no effect, 5 extremely strong effect, 0 = 4% w/w sucrose reference); for tastes enhanced in the 4% sucrose base: 30 ppm in 4% sucrose base
Experimental: In another experiment, a composition comprising compound of formula I was generated according to the methods described in Example 1. The composition was dissolved in a 4% w/w sucrose solution. A panel of 8 trained people evaluated the test solutions for taste properties (sweet, licorice and sweet lingering) on a scale of −5 to 5 (−5 denoted no effect and 5 denoted extremely strong effect, 0 being the intensity of a reference water solution containing either (i) 4% w/w sucrose solution. The results are shown in the table below.

[2] = system: panel of 8 trained people; experiment: Sensory evaluation of taste properties (descriptive), samples in 4% w/w sucrose solution; format: in vivo; settings: for Description (taste properties: sweet, licorice and sweet lingering): panel of 8 trained people
Experimental: A composition comprising Compound I was generated according to the methods described in Example 1. The composition was dissolved in a 4% w/w sucrose solution, at a final concentration of 30 ppm. A panel of 8 trained people evaluated the test solution, as well as samples comprising rebaudioside A, rebaudioside D, or rebaudioside M for taste properties (sweet, licorice and sweet lingering).

[3] = 30 ppm in 4% w/w sucrose solution

Which Licorice [1] does the source give for C=C1C[C@@]23CC[C@H]4[C@@](C)(CCC[C@@]4(C)C(=O)O[C@@H]4OC(CO[C@@H]5OC(CO)[C@@H](O)C(O)C5O)[C@@H](O)C(O)C4O)[C@@H]2CC[C@]1(O[C@@H]1OC(CO)[C@@H](O)C(O[C@@H]2OC(CO)[C@@H](O)C(O)C2O)C1O[C@@H]1OC(CO)[C@@H](O)C(O)C1O)C3 (some centres unmarked) [Compound I] here?
The Licorice was 1.4.

What about the Sweet [1] of the same compound?
Its Sweet is 1.1.

What about the “Sweet Lingering” value [1] of the same compound?
Its value is 0.4.

And the “effect for licorice and sweet lingering tastes” value ([1]; dosage of 30 ppm in 4% sucrose base)?
Its value is “without any significant effect”.

And the “effect on sweet intensity in the 4% sucrose base” value ([1]; dosage of 30 ppm, 95% of confidence level)?
The value was “significantly enhanced”.

And the “Description (taste properties: sweet, licorice and sweet lingering)” value (“Description” below) [2, 3]?
The value was “Sweet, licorice, lingering”.

Which “Description” value [2, 3] does the source give for OC[C@H]1O[C@@](CO)(O[C@H]2O[C@H](CO)[C@@H](O)[C@H](O)[C@H]2O)[C@@H](O)[C@@H]1O [Sucrose, sucrose] here?
The value was “Sweet, slightly lingering”.

And the “lingering taste compared to the others” value ([2]; 30 ppm test samples in 4% w/w sucrose solution)?
Its value is “weaker lingering taste than others”.

How did the “tastes enhanced in the 4% sucrose base” value [1] turn out when C=C1C[C@@]23CC[C@H]4[C@@](C)(CCC[C@@]4(C)C(=O)O[C@@H]4O[C@H](CO)[C@@H](O)[C@H](O[C@@H]5O[C@H](CO)[C@@H](O)[C@H](O)[C@H]5O)[C@H]4O[C@@H]4O[C@H](CO)[C@@H](O)[C@H](O)[C@H]4O)[C@@H]2CC[C@]1(O[C@@H]1O[C@H](CO)[C@@H](O)[C@H](O[C@@H]2O[C@H](CO)[C@@H](O)[C@H](O)[C@H]2O)[C@H]1O[C@@H]1O[C@H](CO)[C@@H](O)[C@H](O)[C@H]1O)C3 [Reb M, rebaudioside M] was run?
The value was “enhancing all sweet, licorice and sweet lingering tastes”.

And the Licorice [1]?
Its Licorice is 1.3.

What about the Sweet [1] of the same compound?
Its Sweet is 1.6.

And the “Sweet Lingering” value [1]?
The value was 0.8.

What about the “licorice taste compared to the other samples” value [2, 3] of the same compound?
Its value is “stronger licorice taste”.

And the “Description” value [2, 3]?
The value was “Licorice, sweet, lingering”.

For C=C1C[C@@]23CC[C@H]4[C@@](C)(CCC[C@@]4(C)C(=O)O[C@@H]4O[C@H](CO)[C@@H](O)[C@H](O)[C@H]4O[C@@H]4O[C@H](CO)[C@@H](O)[C@H](O)[C@H]4O)[C@@H]2CC[C@]1(O[C@@H]1O[C@H](CO)[C@@H](O)[C@H](O[C@@H]2O[C@H](CO)[C@@H](O)[C@H](O)[C@H]2O)[C@H]1O[C@@H]1O[C@H](CO)[C@@H](O)[C@H](O)[C@H]1O)C3 [Reb D, rebaudioside D], which Licorice [1] is on record?
The Licorice was 1.3.

What about the Sweet [1] of the same compound?
Its Sweet is 1.5.

And the “Sweet Lingering” value [1]?
The value was 0.4.

What about the “Description” value [2, 3] of the same compound?
The value was “Sweet, lingering, licorice”.

Which results are given for C=C1C[C@@]23CC[C@H]4[C@@](C)(CCC[C@@]4(C)C(=O)O[C@@H]4O[C@H](CO)[C@@H](O)[C@H](O)[C@H]4O)[C@@H]2CC[C@]1(O[C@@H]1O[C@H](CO)[C@@H](O)[C@H](O[C@@H]2O[C@H](CO)[C@@H](O)[C@H](O)[C@H]2O)[C@H]1O[C@@H]1O[C@H](CO)[C@@H](O)[C@H](O)[C@H]1O)C3 [Reb A, rebaudioside A]?
tastes enhanced in the 4% sucrose base [1]: enhancing sweet and sweet lingering tastes; Licorice [1]: 1.3; Sweet [1]: 1.5; Sweet Lingering [1]: 0.5; Description (taste properties: sweet, licorice and sweet lingering) [2, 3]: Sweet, licorice, lingering, slightly
